From ChEMBL document CHEMBL3227995, “Synthesis of aza homologues of folic acid” (J Med Chem, 1979)
In brackets after ≈: the same amount, converted by molar mass. Activity calls are given as the source filed them. The calls are words filed in the database; no cut-off is given here.

Columns and labels:
Lacticaseibacillus casei [1] = assay: Antimicrobial activity against Lactobacillus casei ATCC 7469; type: functional; conditions: read-out: ID50 (the source's name)
CCRF-CEM [2] = assay: Cytotoxicity against human CCRF-CEM cells; type: functional; conditions: read-out: ID50 (the source's name)
CCRF-CEM [3] = assay: Cytotoxicity against human CCRF-CEM cells at 10 ug/ml; type: functional, cell-based
Lacticaseibacillus casei [4] = assay: Antimicrobial activity against Lactobacillus casei ATCC 7469 at 2 ug/ml; type: functional, organism-based
L1210 = assay: Antitumor activity against mouse L1210 cells allografted in BDF1 mouse assessed as increase of life span at non-toxic dosed administered as ip on day 1, 4 and 7; type: functional, organism-based
Mus musculus = assay: Toxicity in mouse L1210 cells allografted BDF1 mouse at 60 mg/kg, ip; type: organism-based; parameters: dose 60 mg/kg, route intraperitoneal; conditions: in vivo
[5] = target: T1, Thymidylate synthase (Lactobacillus casei) (UniProt P00469); assay: Inhibition of Lactobacillus casei thymidylate synthetase; conditions: Lacticaseibacillus casei
T1 sequence (whole entry): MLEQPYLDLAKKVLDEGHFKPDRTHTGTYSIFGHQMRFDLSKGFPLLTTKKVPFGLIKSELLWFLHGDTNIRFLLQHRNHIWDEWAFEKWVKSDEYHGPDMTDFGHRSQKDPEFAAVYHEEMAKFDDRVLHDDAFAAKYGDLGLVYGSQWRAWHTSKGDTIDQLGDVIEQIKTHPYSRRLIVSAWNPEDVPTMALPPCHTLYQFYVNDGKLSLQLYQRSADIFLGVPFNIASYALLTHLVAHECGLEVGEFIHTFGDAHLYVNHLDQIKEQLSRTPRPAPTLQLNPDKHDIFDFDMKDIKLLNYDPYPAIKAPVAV

Enterococcus faecium = assay: Increase of Streptococcus faecium ATCC 8043 growth relative to folic acid; type: functional
Pediococcus = assay: Increase of Pediococcus cerevisiae ATCC 8081 growth relative to leucovorin; type: functional

Row | Structure (SMILES) | Activity (CCRF-CEM [3]) | Activity (Lacticaseibacillus casei [4]) | also measured
1 | CN(Cc1cnc2nc(N)nc(N)c2n1)c1ccc(C(=O)N[C@@H](CCC(=O)O)C(=O)O)cc1 [METHOTREXATE] |  |  | IC50 (Lacticaseibacillus casei [1]): 0.01 µg/mL (≈ 0.022 µM); IC50 (CCRF-CEM [2]): 0.02 µg/mL (≈ 0.044 µM)
2 | COC(=O)CC[C@H](NC(=O)Nc1ccc(/N=C/c2cnc3nc(NC(C)=O)[nH]c(=O)c3n2)cc1)C(=O)OC | inactive | inactive | 
3 | Nc1nc2ncc(CNc3ccc(NC(=O)NC(CC(=O)O)C(=O)O)cc3)nc2c(=O)[nH]1 (racemic) | inactive |  | Activity (L1210): inactive; IC50 (Lacticaseibacillus casei [1]): 1.6 µg/mL (≈ 3.62 µM); Activity (Mus musculus): Toxic; ID50 [5]: 1.8 ×10⁻⁴ M
4 | COC(=O)C[C@H](NC(=O)Nc1ccc(/N=C/c2cnc3nc(NC(C)=O)[nH]c(=O)c3n2)cc1)C(=O)OC | inactive | inactive | 
5 | Nc1nc2ncc(CNc3ccc(NC(=O)NC(CCC(=O)O)C(=O)O)cc3)nc2c(=O)[nH]1 (racemic) | inactive | inactive | Activity (L1210): inactive; Activity (Enterococcus faecium): 2%; Activity (Mus musculus): Toxic; Activity (Pediococcus): 0.5%; ID50 [5]: 1.8 ×10⁻⁴ M
6 | COC(=O)C[C@H](NC(=O)Nc1ccc(NCc2cnc3nc(NC(C)=O)[nH]c(=O)c3n2)cc1)C(=O)OC | inactive | inactive | 
7 | COC(=O)CC[C@H](NC(=O)Nc1ccc(NCc2cnc3nc(NC(C)=O)[nH]c(=O)c3n2)cc1)C(=O)OC | inactive | inactive | 
